One data set has as its target T1, human CXCR4 (Homo sapiens, UniProt P61073).
T1 construct: expressed in transfected cells; host or cells: mouse pre-B cell line 300-19
Briefly: Ca2+-assay: CXCR4-antagonizing activity (SDF-1 induced calcium mobilization). Type of data set: cell-based. The settings on record: mouse pre-B cell line 300-19 stably transfected with human CXCR4, read-out: IC50% [nM] ± SD, CXCR4 receptor. The text has this: 2.3. Ca^2+-Assay: CXCR4-Antagonizing Activity of the Depsipeptides
Increases in intracellular calcium were monitored using a Flexstation 384 (Molecular Devices, Sunnyvale, Calif.) to assay the depsipeptides for CXCR4 antagonism in a mouse pre-B cell line 300-19 stably transfected with human CXCR4 (E. Oberlin, A. Amara, F. Bachelerie, C. Bessia, J.-L. Virelizier, F. Arenzana-Seisdedos, O. Schwartz, J.-M. Heard, I. Clark-Lewis, D. F. Legler, M. Loetscher, M. Baggiolini, B. Moser, Nature 1996, 382, 833-835; M. Loetscher, T. Geiser, T. O'Reilly, R. Zwalen, M. Baggiolini, B. Moser, J. Biol. Chem. 1994, 269, 232-237; M. D'Apuuo, A. Rolink, M. Loetscher, J. A. Hoxie, I. Clark-Lewis, F. Melchors, M. Baggiolini, B. Moser, Eur. J. Immunol. 1997, 27, 1788-1793). The cells were batch loaded with the Calcium 4 Assay kit (Molecular Devices) in assay buffer (Hanks Balanced salt solution [HBSS], 20 mM HEPES, pH 7.4, 0.1% BSA) for 1 h at room temperature and labeled cells were dispensed into black well assays plates (Costar No. 3603). Calcium mobilization induced by stromal-derived factor-1 (SDF-1) was measured in the Flexstation 384 (excitation: 485 nm; emission: 525 nm) for 90 seconds. Antagonist activity of depsipeptides was determined by spiking the cells with compounds prior to SDF-1 addition. Dose response curves (compound concentration versus % maximum response for SDF-1) were determined for each antagonist and IC50 values were calculated by fitting the data to a four parameter logistic equation using SoftmaxPro 4.8 (Molecular Devices).

Data set [1] in a line: Plasma stability, mouse plasma. The settings on record: 37° C., sampled up to 240 min; for half-life at 10 μM: read-out: Plasmastability mouse pl. T1/2. Type of data set: in vitro ADME. The method, then: (§1) The stability of the depsipeptides in human and mouse plasma was determined by applying the following method: 315 μL/deep well of freshly thawed human plasma (Basler Blutspende-dienst) and mouse plasma (Harlan Sera-Lab, UK), respectively, were spiked with 35 μL/well of compound in PBS (100 μM, triplicate) and incubated at 37° C. At t=0, 15, 30, 60, 120 and 240 min aliquots of 50 μL were transferred to filtration plate wells containing 150 μL/well of acetonitrile. Following shaking for 2 min the occurred suspensions were filtrated by vacuum and finally, 100 μL of each filtrate were transferred to a propylene microtiter plate, and analyzed by LC/MS as follows: Column: Waters, XBridge C18, mobile phases: (A) water+0.1% formic acid and (B) acetonitrile/water, 95/5 (v/v)+0.1% formic acid, gradient: 5%-100% (B) in 2 minutes, electrospray ionization, MRM detection (triple quadrupole). The peak areas were determined and triplicate values are averaged. The stability is expressed in percent of the initial value at t=0. (tx/t0×100). By using the TREND function of EXCEL (Microsoft Office 2003) T1/2 were determined.

Data set [2] can be described thus: Plasma stability, human plasma. Conditions: 37° C., sampled up to 240 min; for half-life at 10 μM: read-out: Plasmastability human pl. T1/2. Type of data set: in vitro ADME. As to the method: as §1
Another data set can be described thus: in vitro. In kind it is cell-based. As to the method: The cytotoxicity of the depsipeptides to HELA cells (Acc57) and COS-7 cells (CRL-1651) was determined using the MTT reduction assay (T. Mossman, J. Immunol. Meth. 1983, 65, 55-63; M. V. Berridge, A. S. Tan, Arch. Biochem. Biophys. 1993, 303, 474-482). Briefly, the method was as follows: 7000 HELA cells/well and 4500 COS-7 cells/well were seeded and grown in 96-well microtiter plates for 24 h at 37° C. at 5% CO2. Thereafter, time zero (Tz) was determined by MTT reduction (see below). The supernatant of the remaining wells was discarded, and fresh medium and compounds in serial dilutions (12.5, 25 and 50 μM, triplicates) were pipetted into the wells. After incubation of the cells for 48 h at 37° C. at 5% CO2 the supernatant was discarded again and 100 μL MTT reagent (0.5 mg/mL in RPMI1640 and DMEM, respectively)/well was added. Following incubation at 37° C. for 2 h the media were aspirated and the cells were spiked (100 μL isopropanol/well). The absorbance of the solubilized formazan was measured at 595 nm (OD595peptide). For each concentration averages were calculated from triplicates. The percentage of growth was calculated as follows: (OD595peptide-OD595Tz-OD595Empty well)/(OD595Tz-OD595Empty well)×100%. The GI50 (Growth Inhibition) concentrations were calculated for each depsipeptide by using a trend line function for the concentrations (50, 25, 12.5 and 0 μM), the corresponding percentages and the value 50, (=TREND (C50:C0, %50:%0, 50).

For data set [3], the system named is human red blood cells (hRBC). Type of data set: cell-based. The settings on record: red cells of human, 1 h. The method, then: 2.5. Hemolysis The depsipeptides were tested for their hemolytic activity against human red blood cells (hRBC). Fresh hRBC were washed three times with phosphate buffered saline (PBS) and centrifuged for 10 min at 2000×g. Compounds (100 μM) were incubated with 20% hRBC (v/v) for 1 h at 37° C. The final erythrocyte concentration was approximately 0.9×10^9 cells/mL. A value of 0% and 100% cell lyses, respectively, was determined by incubation of hRBC in the presence of PBS alone and 0.1% Triton X-100 in H2O, respectively. The samples were centrifuged, the supernatants were 20-fold diluted in PBS buffer and the optical densities (OD) were measured at 540 nm. The 100% lyses value (OD540H2O) gave an OD540 of approximately 1.3-1.8. Percent hemolysis was calculated as follows: (OD540peptide/OD540H2O)×100%.

Numbered stars: 1 amine (or outer) side, 2 acyl side, 3 side chain; on linkers, the order of the positions; unused ones are H or OH. Bridge positions count the residues as written; N and C are the ends. Square brackets hold non-standard residues; d marks the D form. Peptide text beside a SMILES is read from it. Abu(3S-NH2) = C[C@H](N)[C@H](N)C(=O)O; Hpla = O=C(O)[C@@H](O)Cc1ccc(O)cc1; X1 = NCC[C@H](O[*:1])C(=O)[*:2]; Lac = C[C@H](O)C(=O)O Bounds are passed on as bounds.

T1 sequence (P61073 whole entry): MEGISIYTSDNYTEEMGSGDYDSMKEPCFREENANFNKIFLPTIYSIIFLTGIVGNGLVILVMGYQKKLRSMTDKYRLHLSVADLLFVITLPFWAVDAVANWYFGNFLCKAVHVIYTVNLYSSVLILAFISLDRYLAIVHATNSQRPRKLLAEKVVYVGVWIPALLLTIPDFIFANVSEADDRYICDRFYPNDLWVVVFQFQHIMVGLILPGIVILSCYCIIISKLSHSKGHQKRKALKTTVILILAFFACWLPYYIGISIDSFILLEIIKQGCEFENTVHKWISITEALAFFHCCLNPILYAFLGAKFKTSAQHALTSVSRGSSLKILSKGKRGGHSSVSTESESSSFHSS

With `C[C@@H]1NC(=O)[C@H](CCN)OC(=O)[C@H](Cc2ccc(O)cc2)NC(=O)[C@@H]2CCCN2C(=O)[C@H]2CCCN2C(=O)[C@H](CCCCN)NC(=O)[C@H](CCC(N)=O)NC(=O)[C@H](Cc2ccc(O)cc2)NC(=O)[C@@H]2CSSC[C@H](NC1=O)C(=O)N[C@@H](CO)C(=O)N[C@@H](C)C(=O)N1CCC[C@@H]1C(=O)N[C@@H]([C@H](C)N)C(=O)N[C@@H](CCCNC(=N)N)C(=O)N[C@@H](Cc1ccc(O)cc1)C(=O)N2` [Example 6] (cyclo(Y[X1]ACSA[dP][Abu(3S-NH2)]RYCYQK[dP]P); disulfide 4-11), the IC50 (usually the midpoint of a concentration-inhibition curve) on human CXCR4 is 13.5 ± 5 nM. Moreover, the half-life at 10 μM in data set [1] stood at 0.0717 h; in data set [2], 0.07 h. The GI50 at 48 h in “in vitro” (African green monkey) and in the data set “in vitro” (human) was above 50000 nM each time. Besides, the “Hemolysis at 100 μM” value in data set [3] came out at 1.0%.
As to `C[C@@H]1NC(=O)[C@H](Cc2c[nH]cn2)NC(=O)[C@H](Cc2ccc(O)cc2)OC(=O)[C@@H]2CCCN2C(=O)[C@H]2CCCN2C(=O)[C@H](CCCCN)NC(=O)[C@H](CCC(N)=O)NC(=O)[C@H](Cc2ccc(O)cc2)NC(=O)[C@@H]2CSSC[C@H](NC1=O)C(=O)N[C@@H](CO)C(=O)N[C@@H](C)C(=O)N1CCC[C@@H]1C(=O)N[C@@H]([C@H](C)N)C(=O)N[C@@H](CCCNC(=N)N)C(=O)N[C@@H](Cc1ccc(O)cc1)C(=O)N2` [Example 5] (cyclo([Hpla]HACSA[dP][Abu(3S-NH2)]RYCYQK[dP]P); disulfide 4-11), at human CXCR4, the IC50 turned out to be 3.3 ± 1.1 nM. The molecule also yielded a Plasmastability mouse pl. T1/2 in data set [1] above 4 h. For the same molecule, the Plasmastability human pl. T1/2 in data set [2] is above 4 h. Besides, the 50% growth inhibitory concentration (GI50) at 48 h in the data set “in vitro” (African green monkey) and in “in vitro” (human) was above 50000 nM in each case. In addition, the “Hemolysis at 100 μM” value in data set [3] amounted to 1.5%.
Consider `C[C@@H]1NC(=O)[C@H](Cc2c[nH]cn2)NC(=O)[C@H](Cc2ccc(O)cc2)NC(=O)[C@@H]2CCCN2C(=O)[C@H]2CCCN2C(=O)[C@H](CCCCN)NC(=O)[C@H](CCC(N)=O)NC(=O)[C@H](Cc2ccc(O)cc2)NC(=O)[C@@H]2CSSC[C@H](NC1=O)C(=O)N[C@@H](CO)C(=O)O[C@@H](C)C(=O)N1CCC[C@@H]1C(=O)N[C@@H]([C@H](C)N)C(=O)N[C@@H](CCCNC(=N)N)C(=O)N[C@@H](Cc1ccc(O)cc1)C(=O)N2` [Example 1] (cyclo(YHACS[Lac][dP][Abu(3S-NH2)]RYCYQK[dP]P); disulfide 4-11), for which, on human CXCR4, the IC50 is 0.8 ± 0.5 nM. The half-life at 10 μM in data set [1] is 1.22 h; in data set [2], 1.32 h. For the same molecule, the GI50 (usually the concentration giving 50% growth inhibition) at 48 h turned out to be 12000 nM in “in vitro” (African green monkey) and 2000 nM in “in vitro” (human). The “Hemolysis at 100 μM” value in data set [3] is on record as 0.2%.

Values taken from US8883720B2, “Template-fixed beta-hairpin peptidomimetics with CXCR4 antagonizing activity” (Polyphor AG, priority 2008, dated 2014).
